From patent publication US20230089534A1, “PHENOLIC COMPOSITIONS FOR MALODOR REDUCTION” (Milliken & Company, priority 2021, published 2023)

Assays:
[1] = Wash test: malodor marker reduction on artificial body soil treated fabric, headspace GCMS; conditions: Table 5, vs control detergent nil antioxidant
Procedure: In order to test the efficiency of the antioxidants for malodor reduction, an artificial body soil (ABS) was prepared. The artificial body soil is a modified version of the soil from ASTM D4265-21. To prepare the ABS, the components of Table 1 were combined in an 8 oz. jar and heated to 70° C. until fully solubilized.
50/50 Cotton/poly interlock fabric (Style 7439 GB, Testfabrics, Inc.) was cut into 2 in×5 in swatches. Cut swatches were dosed with three equally spaced 0.36 mL portions of artificial body soil composition. Fabrics were then sealed together in a mylar bag and incubated at 37° C. for four to seven days prior to wash treatment.
Antioxidant solution was prepared by dissolving the antioxidant compound to be tested in methanol at 0.5% w/w. The antioxidant solution was dosed into the wash water (500 mL) using a micropipettor according to Table 3 to obtain the desired concentration of antioxidant in wash water required for the testing.
To 1 L wash beaker was added 0.4 g Tide Free and Gentle detergent, 500 mL of wash water (as prepared in Table 2) and the antioxidant solution as described in Table 3. The wash beaker was placed in a tergetometer. To the wash beaker was added two incubated fabric swatches (4 g) followed by one 11 in×11 in 50/50 Cotton/Poly interlock knit clean fabric swatch (16 g, Style 74390B, Testfabrics, Inc.), for a total liquor to fabric ratio of 25:1. The fabrics were then washed in the tergotometer for 15 minutes and spun dried for one minute in a spin dryer (Mini Spin Dryer Model LASD-1 available from The Laundry Alternative, Inc.). […] The tests were run in triplicate and an average malodor reduction percent was calculated. […]
The percent malodor reduction is determined by GCMS using an Agilent Intuvo 9000 GC equipped with an Agilent 7000D GC/TQ mass spectrometer and a Trajan PAL 3 RTC sampler equipped with a solid phase micro-extraction (SPME) probe. […] The extracted ion chromatogram for 3-methyl-2-butenal includes Quantifier: 84, Qualifier: 55, Ratio: 35.7. […]

[2] = Stability of antioxidants in AATCC HE liquid detergent (crystallization/precipitation); type: physicochemical; conditions: room temperature, after 3 days
Description: A comparison of the stability of the antioxidants in standard AATCC detergent was made to highlight the benefit of having a plurality of molecules. Due to the highly crystalline nature of many commercially available antioxidants, they tend to be incompatible in detergent and will crystallize out of the detergent over time. The inventive compounds of this invention show improvements in remaining stable in liquid detergent.
The antioxidants in table 6 were combined with AATCC HE liquid detergent without optical brighteners (available from Test Fabrics, Inc., Item #0501001) in a 20 mL glass scintillation vial. The vials were placed in a sonicator for 1 hour, then heated to 80° C. for 30 minutes, whereby all samples were completely dissolved. The samples were removed from the oven, swirled briefly and hand then allowed to cool to room temperature. When the vials were cooled down to room temperature, the bottom of the vials were scratched with a metal spatula a few times to aide in the crystallization process, which can take a long time if left undisturbed. After an additional 3 days, observations were recorded as crystallization present or not present in Table 6.

Compound: Cc1cc(CCC(=O)OCCOCCOCCOC(=O)CCc2cc(C)c(O)c(C(C)(C)C)c2)cc(C(C)(C)C)c1O [Irganox 245, 2-[2-(2-{3-[3-(tert-Butyl)-4-hydroxy-5-tolyl]propionoxy}ethoxy)ethoxy]ethyl 3-[3-(tert-butyl)-4-hydroxy-5-tolyl]propionate]
- % Malodor marker reduction ([1]; 2 ppm in wash water): 44.0%
- % Malodor marker reduction ([1]; 4 ppm in wash water): 74.4%
- % Malodor marker reduction ([1]; 8 ppm in wash water): 89.5%
- Precipitation Seen ([2]; loading 500 ppm in AATCC detergent): No
- Precipitation Seen ([2]; loading 1000 ppm in AATCC detergent): No
- Precipitation Seen ([2]; loading 5000 ppm in AATCC detergent): Yes
- Precipitation Seen ([2]; loading 10000 ppm in AATCC detergent): Yes
